Assays:
Type in all cases: in vivo
Scirpus juncoides [1] = assay: Herbicidal effect on paddy field weeds of post-emergence stage (Post), Test Example 2; conditions: one-leaf stage, 1000 g/ha as active ingredient, examined after 21 days
Excerpt: (§1) Criteria for herbicidal efficacy (growth inhibiting degree) and phytotoxicity. • 5 . . . 100% herbicidal effect, phytotoxicity. • 4 . . . 90%-99% herbicidal effect, phytotoxicity. • 3 . . . 70%-89% herbicidal effect, phytotoxicity. • 2 . . . 40%-69% herbicidal effect, phytotoxicity. • 1 . . . 1%-39% herbicidal effect, phytotoxicity. • 0 . . . 0% herbicidal effect, phytotoxicity.
(§2) 75 cm^2 plastic pots were filled with the soil (clay loam). Seeds of Scirpus juncoides and Echinochloa crus-galli, paddy weeds, were planted, and they were covered with 75 cm^3 of soil mixed with seeds of Lindernia procumbens and then filled with water depth of 5 cm and they were brought up in a greenhouse. When the test plants were at one-leaf stage, predetermined effective dosage (1000 g/ha as an active ingredient) of formulations comprising a compound of the present invention as an active ingredient was applied to the pot water. Then, they were brought up in a greenhouse and the herbicidal efficacy was examined after 21 days from the treatment by comparing with the result of an untreated group according to the criteria of Test Example 1. In the table, “-” means that the test was not performed.

Lindernia procumbens [2] = assay: as above; conditions: one-leaf stage, 1000 g/ha as active ingredient, examined after 21 days
Excerpt: as §1, §2

Scirpus juncoides [3] = assay: Herbicidal efficacy on paddy field weeds of pre-emergence stage (Pre), Test Example 1; conditions: 1000 g/ha as active ingredient, examined after 21 days
Description: (§3) 75 cm^2 plastic pots were filled with the soil (clay loam). Seeds of Scirpus juncoides, a paddy weed, were planted, and they were covered with 75 cm^3 of soil mixed with seeds of Lindernia procumbens and then filled with water depth of 5 cm. Next day, predetermined effective dosage (1000 g/ha as an active ingredient) of formulations comprising a compound of the present invention as an active ingredient which were prepared following Formulation Examples 1 to 4 was diluted with water and applied dropwise to the surface of the water. Then, they were brought up in a greenhouse and the herbicidal effect was examined after 21 days from the treatment by comparing with the result of an untreated group according to the following criteria. In the table, “-” means that the test was not performed.
as §1

Lindernia procumbens [4] = assay: as above; conditions: 1000 g/ha as active ingredient, examined after 21 days
Description: as §3, §1

Row | SMILES | Scirpus juncoides post (herbicidal effect) (Scirpus juncoides [1]) | Lindernia procumbens post (herbicidal effect) (Lindernia procumbens [2]) | Scirpus juncoides pre (herbicidal effect) (Scirpus juncoides [3]) | Lindernia procumbens pre (herbicidal effect) (Lindernia procumbens [4])
1 | CC1(Cc2ccccc2F)CCN(Cc2ccccc2NS(=O)(=O)C(F)(F)F)C(=O)O1 (racemic) [Compound 1-461] | 4 (90%-99% herbicidal effect, phytotoxicity) | 5 (100% herbicidal effect, phytotoxicity) | 5 (100% herbicidal effect, phytotoxicity) | 5 (100% herbicidal effect, phytotoxicity)
2 | CCCOC(=O)N(c1ccccc1CN1CCC(CC)(C(F)(F)F)OC1=O)S(=O)(=O)C(F)(F)F (stereo not drawn) [Compound 1-94] | 4 (90%-99% herbicidal effect, phytotoxicity) | 5 (100% herbicidal effect, phytotoxicity) | 5 (100% herbicidal effect, phytotoxicity) | 5 (100% herbicidal effect, phytotoxicity)
3 | CCCCOC(=O)N(c1ccccc1CN1CCC(CC)(C(F)(F)F)OC1=O)S(=O)(=O)C(F)(F)F (stereo not drawn) [Compound 1-95] | 4 (90%-99% herbicidal effect, phytotoxicity) | 5 (100% herbicidal effect, phytotoxicity) | 5 (100% herbicidal effect, phytotoxicity) | 5 (100% herbicidal effect, phytotoxicity)
4 | CCC1(CC)CCN(Cc2ccccc2N(C(=O)OCC(C)(C)C)S(=O)(=O)C(F)(F)F)C(=O)O1 [Compound 1-108] | 4 (90%-99% herbicidal effect, phytotoxicity) | 4 (90%-99% herbicidal effect, phytotoxicity) | 4 (90%-99% herbicidal effect, phytotoxicity) | 4 (90%-99% herbicidal effect, phytotoxicity)
5 | CCC1(CC)CCN(Cc2ccccc2N(C(=O)OCC(C)C)S(=O)(=O)C(F)(F)F)C(=S)O1 [Compound 1-119] | 4 (90%-99% herbicidal effect, phytotoxicity) | 4 (90%-99% herbicidal effect, phytotoxicity) | 4 (90%-99% herbicidal effect, phytotoxicity) | 4 (90%-99% herbicidal effect, phytotoxicity)
6 | CCCCC(CC)COC(=O)N(c1ccccc1CN1CCC2(CCCC2)OC1=O)S(=O)(=O)C(F)(F)F (stereo not drawn) [Compound 1-144] | 4 (90%-99% herbicidal effect, phytotoxicity) | 4 (90%-99% herbicidal effect, phytotoxicity) | 4 (90%-99% herbicidal effect, phytotoxicity) | 4 (90%-99% herbicidal effect, phytotoxicity)
7 | CC(C)(C)COC(=O)N(c1ccccc1CN1CCC(C2CC2)(C2CC2)OC1=O)S(=O)(=O)C(F)(F)F [Compound 1-155] | 4 (90%-99% herbicidal effect, phytotoxicity) | 4 (90%-99% herbicidal effect, phytotoxicity) | 4 (90%-99% herbicidal effect, phytotoxicity) | 4 (90%-99% herbicidal effect, phytotoxicity)
8 | CC1(c2ccccc2)CCN(Cc2ccccc2NS(=O)(=O)C(F)(F)F)C(=O)O1 (stereo not drawn) [Compound 1-160] | 4 (90%-99% herbicidal effect, phytotoxicity) | 4 (90%-99% herbicidal effect, phytotoxicity) | 4 (90%-99% herbicidal effect, phytotoxicity) | 4 (90%-99% herbicidal effect, phytotoxicity)
9 | CCOC(=O)N(c1ccccc1CN1CCC(C)(c2ccccc2)OC1=O)S(=O)(=O)C(F)(F)F (stereo not drawn) [Compound 1-162] | 4 (90%-99% herbicidal effect, phytotoxicity) | 4 (90%-99% herbicidal effect, phytotoxicity) | 4 (90%-99% herbicidal effect, phytotoxicity) | 4 (90%-99% herbicidal effect, phytotoxicity)
10 | CC1(c2ccccc2Cl)CCN(Cc2ccccc2NS(=O)(=O)C(F)(F)F)C(=O)O1 (stereo not drawn) [Compound 1-172] | 4 (90%-99% herbicidal effect, phytotoxicity) | 4 (90%-99% herbicidal effect, phytotoxicity) | 4 (90%-99% herbicidal effect, phytotoxicity) | 4 (90%-99% herbicidal effect, phytotoxicity)
11 | CCOC(=O)N(c1ccccc1CN1CCC(C)(c2ccccc2Cl)OC1=O)S(=O)(=O)C(F)(F)F (stereo not drawn) [Compound 1-174] | 4 (90%-99% herbicidal effect, phytotoxicity) | 4 (90%-99% herbicidal effect, phytotoxicity) | 4 (90%-99% herbicidal effect, phytotoxicity) | 4 (90%-99% herbicidal effect, phytotoxicity)
12 | CC(C)COC(=O)N(c1ccccc1CN1CCC(C)(c2ccccc2Cl)OC1=O)S(=O)(=O)C(F)(F)F (stereo not drawn) [Compound 1-177] | 4 (90%-99% herbicidal effect, phytotoxicity) | 4 (90%-99% herbicidal effect, phytotoxicity) | 4 (90%-99% herbicidal effect, phytotoxicity) | 4 (90%-99% herbicidal effect, phytotoxicity)
13 | O=C1OC(c2ccccc2)(C2CC2)CCN1Cc1ccccc1NS(=O)(=O)C(F)(F)F (stereo not drawn) [Compound 1-183] | 4 (90%-99% herbicidal effect, phytotoxicity) | 4 (90%-99% herbicidal effect, phytotoxicity) | 4 (90%-99% herbicidal effect, phytotoxicity) | 4 (90%-99% herbicidal effect, phytotoxicity)
14 | O=C1OC(c2ccc(Cl)cc2)(C2CC2)CCN1Cc1ccccc1NS(=O)(=O)C(F)(F)F (stereo not drawn) [Compound 1-195] | 4 (90%-99% herbicidal effect, phytotoxicity) | 4 (90%-99% herbicidal effect, phytotoxicity) | 4 (90%-99% herbicidal effect, phytotoxicity) | 4 (90%-99% herbicidal effect, phytotoxicity)
15 | CCOC(=O)N(c1ccccc1CN1CCC(c2ccc(Cl)cc2)(C2CC2)OC1=O)S(=O)(=O)C(F)(F)F (stereo not drawn) [Compound 1-197] | 4 (90%-99% herbicidal effect, phytotoxicity) | 4 (90%-99% herbicidal effect, phytotoxicity) | 4 (90%-99% herbicidal effect, phytotoxicity) | 4 (90%-99% herbicidal effect, phytotoxicity)
16 | O=C1OC(c2ccccc2)(C2CCC2)CCN1Cc1ccccc1NS(=O)(=O)C(F)(F)F (stereo not drawn) [Compound 1-206] | 4 (90%-99% herbicidal effect, phytotoxicity) | 4 (90%-99% herbicidal effect, phytotoxicity) | 4 (90%-99% herbicidal effect, phytotoxicity) | 4 (90%-99% herbicidal effect, phytotoxicity)
17 | O=C1OC(c2ccccc2)(c2ccccc2)CCN1Cc1ccccc1NS(=O)(=O)C(F)(F)F [Compound 1-217] | 4 (90%-99% herbicidal effect, phytotoxicity) | 4 (90%-99% herbicidal effect, phytotoxicity) | 4 (90%-99% herbicidal effect, phytotoxicity) | 4 (90%-99% herbicidal effect, phytotoxicity)
18 | CCOC(=O)N(c1ccccc1CN1CCC(c2ccccc2)(c2ccccc2)OC1=O)S(=O)(=O)C(F)(F)F [Compound 1-219] | 4 (90%-99% herbicidal effect, phytotoxicity) | 4 (90%-99% herbicidal effect, phytotoxicity) | 4 (90%-99% herbicidal effect, phytotoxicity) | 4 (90%-99% herbicidal effect, phytotoxicity)
19 | O=C1OC(c2ccccc2)(C(F)(F)F)CCN1Cc1ccccc1NS(=O)(=O)C(F)(F)F (stereo not drawn) [Compound 1-228] | 4 (90%-99% herbicidal effect, phytotoxicity) | 5 (100% herbicidal effect, phytotoxicity) | 5 (100% herbicidal effect, phytotoxicity) | 5 (100% herbicidal effect, phytotoxicity)
20 | O=C1OC(c2ccccc2F)CCN1Cc1ccccc1NS(=O)(=O)C(F)(F)F (stereo not drawn) [Compound 1-250] | 5 (100% herbicidal effect, phytotoxicity) | 5 (100% herbicidal effect, phytotoxicity) | 5 (100% herbicidal effect, phytotoxicity) | 5 (100% herbicidal effect, phytotoxicity)
21 | CCOC(=O)N(c1ccccc1CN1CCC(c2ccccc2F)OC1=O)S(=O)(=O)C(F)(F)F (stereo not drawn) [Compound 1-252] | 4 (90%-99% herbicidal effect, phytotoxicity) | 5 (100% herbicidal effect, phytotoxicity) | 4 (90%-99% herbicidal effect, phytotoxicity) | 5 (100% herbicidal effect, phytotoxicity)
